We go through 7 compounds from ChEMBL document CHEMBL1649484, “AbaR5, a large multiple-antibiotic resistance region found in Acinetobacter baumannii” (2009).

Format in all cases: functional
In assay [1] the test system is Acinetobacter baumannii. Put plainly: Antimicrobial activity against Acinetobacter baumannii 3208 expressing multiple-antibiotic resistance gene AbaR5 by […] 2 system.
In assay [2] the test system is Acinetobacter baumannii. Nature of the assay: Antimicrobial activity against Acinetobacter baumannii 3208 expressing multiple-antibiotic resistance gene AbaR5 by […] 2 system in presence of beta-lactamase inhibitor Tazobactam.
In assay [3] the test system is Acinetobacter baumannii. Put plainly: Antimicrobial activity against Acinetobacter baumannii 3208 expressing multiple-antibiotic resistance gene AbaR5 by […] 2 system in presence of beta-lactamase inhibitor clavulanic acid.

Converted amounts (≈) assume the structure as drawn. Bounds are passed on as bounds.

Broadly, the MIC is the lowest concentration that inhibits growth of the organism. `C[C@@H](O)[C@H]1C(=O)N2C(C(=O)O)=C(S[C@@H]3CN[C@H](C(=O)N(C)C)C3)[C@H](C)[C@H]12` [MEROPENEM]: the MIC against Acinetobacter baumannii [1] was 0.5 µg/mL (≈ 1.3 µM).

On to GENTAMICIN, for which the MIC with Acinetobacter baumannii [1] was > 16 µg/mL.

On to `O=C(O)c1cn(C2CC2)c2cc(N3CCNCC3)c(F)cc2c1=O` [CIPROFLOXACIN], for which, in the assay with Acinetobacter baumannii [1], the MIC was ≥ 4 µg/mL.

Regarding `CCN1CCN(C(=O)N[C@@H](C(=O)N[C@@H]2C(=O)N3[C@@H]2SC(C)(C)[C@@H]3C(=O)O)c2ccccc2)C(=O)C1=O` [PIPERACILLIN], the MIC in the assay with Acinetobacter baumannii [2] is ≤ 4 µg/mL.

On to `CC1(C)S[C@@H]2[C@H](NC(=O)[C@H](C(=O)O)c3ccsc3)C(=O)N2[C@H]1C(=O)O` [TICARCILLIN], for which the MIC in the assay on Acinetobacter baumannii [3] is 32 µg/mL.

In the assay with Acinetobacter baumannii [1], `CO/N=C(\C(=O)N[C@@H]1C(=O)N2C(C(=O)[O-])=C(C[N+]3(C)CCCC3)CS[C@H]12)c1csc(N)n1` [CEFEPIME] showed an MIC of 16 µg/mL (≈ 33.3 µM).

On to `NC[C@H]1O[C@H](O[C@H]2[C@H](O)[C@@H](O[C@H]3O[C@H](CO)[C@@H](O)[C@H](N)[C@H]3O)[C@H](N)C[C@@H]2N)[C@H](N)C[C@@H]1O` [TOBRAMYCIN], for which the minimal inhibitory concentration (MIC) against Acinetobacter baumannii [1] was ≤ 1 µg/mL.
